What was measured:
[1] = test system: Rat pancreatic islets; experiment: Insulin secretion level by hyperglycemia stimulation in primary pancreatic islets; assay type: cell-based, Sprague Dawley rats; details: 5 μM ZA for 3 days, mean±SD of five experiments
Protocol: Rat pancreatic islets were isolated from Sprague Dawley rats (200˜230 g) by digesting the pancreatic duct with collagenase P (1 mg/ml in PBS). After digestion, the islets were separated with Histopaque-1077 (Sigma, St. Louis, Mo.). The primary islets were cultured in RPMI 1640 medium containing 10% fetal bovine serum (FBS), penicillin (100 IU/ml) and streptomycin (100 g/ml). Equal number of primary islet clusters was transferred into micro-centrifuge tube with 1 ml of 10% RPMI 1640, and incubated under normal (5.5 mM glucose) and glucotoxic conditions with or without Zoledronic acid (5 μM) for 3 days. Exposure to glucotoxic conditions was followed by treating with 0.6 mM free fatty acid (FFA; palmitate/oleate, 2:1) and 25 mM glucose in RPMI 1640 with 10% FBS. FFA were complexed with 5% fatty acid-free BSA in PBS. Cultured islets were washed in Krebs-Ringer-bicarbonate (KRB) buffer (130 mM NaCl, 3.6 mM KCl, 1.5 mM CaCl2, 0.5 mM MgSO4, 0.5 mM KH2PO4. 2.0 mM NaHCO2 and 10 mM HEPES) and incubated in KRB buffer for 1 hour followed by further incubation in KRB buffer containing 5.5 mM glucose for 1 hour. Samples were centrifuged at 12,000 g for 1 min and the supernatant was collected for measurement. […] Insulin concentrations from two supernatants removed at two different conditions were measured with a RIA kit (Linco) The results are presented as the mean±SD of five independent experiments. […]

[2] = molecular target: T1, PTP-1B (Homo sapiens, UniProt P18031); experiment: Inhibition of binding PTP-1B with IR (protein chip, anti-IR phosphorylation antibody); assay type: biochemical; details: mean±SD, n=6
T1 sequence (P18031 1-435): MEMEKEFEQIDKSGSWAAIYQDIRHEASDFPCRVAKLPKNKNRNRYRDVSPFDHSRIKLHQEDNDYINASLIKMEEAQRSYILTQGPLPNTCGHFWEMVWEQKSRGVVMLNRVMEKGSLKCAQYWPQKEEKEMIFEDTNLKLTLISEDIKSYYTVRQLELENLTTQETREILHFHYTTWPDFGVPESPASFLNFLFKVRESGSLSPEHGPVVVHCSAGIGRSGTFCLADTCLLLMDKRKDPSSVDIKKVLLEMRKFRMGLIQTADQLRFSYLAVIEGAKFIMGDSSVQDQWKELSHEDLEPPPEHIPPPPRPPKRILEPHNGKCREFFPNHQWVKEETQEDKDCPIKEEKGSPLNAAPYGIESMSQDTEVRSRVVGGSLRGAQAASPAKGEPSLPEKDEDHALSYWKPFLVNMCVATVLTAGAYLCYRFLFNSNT
Protocol: IR molecules stood for 1 hour at 30° C. to induce phosphorylation, and each 1 μl of IR molecules were fixed with protein chips(PeproTech) at 4° C. The protein chips were washed with washing buffer for 10 minutes, and blocked with blocking buffer(3% BSA in PBS, pH 7.4) at room temperature for 1 hour followed by washing with washing buffer. Each sample was as follow:
0. Blank control(C), 0.5 μl PEG (10%, polyethylene glycol)+0.5 μl PTP-1B buffer;
1. Negative control(N), 0.5 μl PEG (10%)+0.5 μl PTP-1B;
2. Positive control(P), 0.5 μl Na3VO4(sodium orthovanadate; 1 mM, pH 10)+0.5 μl PTP-1B;
3. Experimental group(ZA), 0.5 μl ZA (5 μM)+0.5 μl PTP-1B
The protein chips were washed for 10 minutes, and each was treated with 1 μl of anti-IR phosphorylation antibodies diluted by dilution buffer in 1/100 followed by incubating for 1 hour at 30° C. And then, it was washed with washing buffer for 10 minutes, and each was treated with […] of Cy5-fluorescent coupled rabbit anti-IgG antibodies diluted by dilution buffer in 1/100 followed by incubating for 1 hour at 30° C. They were washed for 10 minutes, scanned by microarray scanner system to analyze to GraphPad Prism 4 software.
The results are presented as the mean±SD(%). Statistical analysis was performed using Student's t-test, and P<0.05 was considered as a significance (n=6).

inhibition at 5 µM ([2]; ZA 5 μM, read-out: inhibition effect of binding PTP-1B with IR) [%] | inhibition effect of binding PTP-1B with IR ([2]; positive control, Na3VO4 1 mM, pH 10) [%] | Compound | insulin secretion level ([1]; diabetes mellitus condition (25 mM glucose, glucotoxic), untreated reduced to 52±19% compared to normal condition) [%] | insulin secretion level ([1]; normal condition (5.5 mM glucose), untreated = 100±17%) [%]
89 ± 21 |  | O=P(O)(O)C(O)(Cn1ccnc1)P(=O)(O)O [ZA, [1-hydroxy-2-(1H-imidazol-1-yl)ethane-1,1-diyl]bis(phosphonic acid)] | 72±34 | 82±43
 | 87±4 | [Na+].[Na+].[Na+].[O]=[V]([O-])([O-])[O-] [Na3VO4, sodium orthovanadate] |  | 

From US8623845B1, “Pharmaceutical composition for preventing or treating Diabetes mellitus comprising bisphophonates” (Metacine, Inc., priority 2012, dated 2014)
